Assay: osmotic coefficient (dimensionless); mn = molality of the nth substance listed, in mol/kg
Settings: Liquid, isopiestic method

O=C([O-])[C@H](O)[C@@H](O)C(=O)[O-].[K+].[K+] [dipotassium L-tartrate] + O
Settings | osmotic coefficient
298.15 K, m1 = 0 | 1
298.15 K, m1 = 0.3635 | 0.713
298.15 K, m1 = 0.604 | 0.683
298.15 K, m1 = 0.7532 | 0.675
298.15 K, m1 = 1.285 | 0.677
298.15 K, m1 = 1.702 | 0.691
298.15 K, m1 = 1.861 | 0.691
298.15 K, m1 = 2.212 | 0.704
298.15 K, m1 = 2.379 | 0.711
298.15 K, m1 = 2.466 | 0.705
298.15 K, m1 = 2.837 | 0.719
298.15 K, m1 = 3.236 | 0.728
298.15 K, m1 = 4.168 | 0.759
298.15 K, m1 = 4.379 | 0.77
298.15 K, m1 = 4.631 | 0.771
298.15 K, m1 = 4.845 | 0.775
298.15 K, m1 = 6.72 | 0.805
298.15 K, m1 = 6.869 | 0.804
308.15 K, m1 = 0 | 1
308.15 K, m1 = 0.3282 | 0.721
308.15 K, m1 = 0.7152 | 0.706
308.15 K, m1 = 0.9198 | 0.702
308.15 K, m1 = 1.135 | 0.692
308.15 K, m1 = 1.327 | 0.694
308.15 K, m1 = 1.854 | 0.705
308.15 K, m1 = 2.215 | 0.712
308.15 K, m1 = 2.842 | 0.725
308.15 K, m1 = 3.585 | 0.751
308.15 K, m1 = 4.177 | 0.764
308.15 K, m1 = 5.047 | 0.78
308.15 K, m1 = 5.836 | 0.793
308.15 K, m1 = 6.435 | 0.806
318.15 K, m1 = 0 | 1
318.15 K, m1 = 0.2468 | 0.741
318.15 K, m1 = 0.3446 | 0.745
318.15 K, m1 = 0.5504 | 0.721
318.15 K, m1 = 0.6181 | 0.712
318.15 K, m1 = 0.9764 | 0.707
318.15 K, m1 = 1.276 | 0.702
318.15 K, m1 = 1.536 | 0.712
318.15 K, m1 = 1.995 | 0.723
318.15 K, m1 = 2.646 | 0.737
318.15 K, m1 = 2.934 | 0.751
318.15 K, m1 = 4.154 | 0.777
318.15 K, m1 = 4.813 | 0.791
318.15 K, m1 = 5.749 | 0.804

Source: the NIST ThermoML archive (doi:10.1021/je700751a)
